Assay results from US20200190062A1, “HETEROCYCLIC COMPOUND AND PHARMACEUTICAL COMPOSITION COMPRISING SAME” (BEYONDBIO INC., priority 2015, published 2020).
Counter-ions that a name gives are not always drawn.

Key:
Assay in all cases: Inhibition of cancer cell proliferation (MTT)
Assay type in all cases: cell-based, human
[1] = system: A549
Protocol: (§1) A test was conducted to confirm whether the compounds obtained in the above Examples can inhibit proliferation of human colon carcinoma cell line HCT116, glioblastoma cell lines U-87MG and T98G, neuroblastoma cell lines SH-SYSY and SK-N-SH, and lung cancer cell lines A549 and NCI-H23.
(§2) HCT116, U-87MG, SH-SYSY, SK-N-SH and A549 cells were culured in DMEM medium containing 10% FBS. T98G cells were cultured in MEM medium containing 10% FBS and NCI-H23 cells were cultured in […] medium containing 10% FBS. In order to analyze an inhibition of proliferation, HCT116 cells were dispensed in 2000 cells/well into 96 well plate, and SH-SYSY, SK-N-SH, U-87MG, T98G, A549, and NCI-H23 cells were dispensed in 3000 cells/well into 96 well plate. And then, the cells were cultured at 5% CO2 and 37° C. for 16 hrs to allow the cells to attach to the wells. The compounds of the above Examples were added to each well at a concentration of 0.004, 0.013, 0.04, 0.12, 0.37, 1.1, 3.3, and 10 uM, and the culture volume was adjusted to 100 ul. A control group was treated with dimethylsulfoxide (DMSO) at the same concentration, 0.08%, as used to treat the test compounds. Afterwards, cells were cultured at 5% CO2 and 37° C. for 72 hrs. And then, 10 ul of the solution of MTT (3-(4,5-dimethylthiazol-2-yl)-2,5-diphenyltetrazolium bromide) dissolved in PBS at 5 mg/ml was added to each well to identify viable cells and the cells were cultured for further 2 hrs. The culture solution was removed, 100 ul of DMSO was added to dissolve the formed formazan and then an absorbance was measured at 535 nm. Based on the absorbance of the control cells not treated with the compounds, the amounts of the viable cells according to the concentration of the compounds were calculated. GI50 (growth inhibition 50) value which is the concentration of the compound to inhibit cancer cell proliferation by 50% was calculated using Graphpad Prism 5.0 program.

[2] = system: HCT116
Protocol: as §1, §2

[3] = system: NCI-H23
Protocol: as §1, §2

[4] = system: T98G
Protocol: as §1, §2

[5] = system: U-87MG
Protocol: as §1, §2

| GI50 ([1]; 72 hrs) [nM] | GI50 ([2]; 72 hrs) [nM] | GI50 ([3]; 72 hrs) [nM] | GI50 ([2]; Homo sapiens, HCT-116, 72 h) [nM] | Compound | also measured |
| --- | --- | --- | --- | --- | --- |
| 170 | 20 | 90 | – | CC(C)c1cc(-c2nc(-c3ccnc(N)c3F)ccc2O)nc(N)n1 [Example 82, 2′-amino-6-(2-amino-6-isopropylpyrimidin-4-yl)-3′-fluoro-[2,4′-bipyridin]-5-ol 2acetate] | – |
| – | 10 | – | – | CCCN1CCC(c2cc(-c3nc(-c4ccnc(N)c4F)ccc3O)nc(N)n2)CC1 [Example 36, 2′-amino-6-(2-amino-6-(1-propylpiperidin-4-yl)pyrimidin-4-yl)-3′-fluoro-[2,4′-bipyridin]-5-ol] | GI50 ([1]; Homo sapiens, A549, 72 h): 20 nM; GI50 ([3]; Homo sapiens, NCI-H23, 72 h): 50 nM; GI50 ([4]; Homo sapiens, T98G, 72 h): 20 nM; GI50 ([5]; Homo sapiens, U-87 MG, 72 h): 10 nM |
| 100 | 70 | 230 | – | Cc1c(-c2nc(-c3ccnc(N)c3F)ccc2O)nc(N)nc1C1CCN(C)CC1 [Example 93, 2′-amino-6-(2-amino-5-methyl-6-(1-methylpiperidin-4-yl)pyrimidin-4-yl)-3′-fluoro-[2,4′-bipyridin]-5-ol 4hydrochloride] | GI50 ([4]; 72 hrs): 100 nM; GI50 ([5]; 72 hrs): 110 nM |
| – | – | – | 10 | CCN1CCC(c2cc(-c3nc(-c4ccnc(N)c4F)ccc3O)nc(N)n2)CC1 [Example 35, 2′-amino-6-(2-amino-6-(1-ethylpiperidin-4-yl)pyrimidin-4-yl)-3′-fluoro-[2,4′-bipyridin]-5-ol] | GI50 ([1]; Homo sapiens, A549, 72 h): 20 nM; GI50 ([3]; Homo sapiens, NCI-H23, 72 h): 60 nM; GI50 ([4]; Homo sapiens, T98G, 72 h): 210 nM; GI50 ([5]; Homo sapiens, U-87 MG, 72 h): 30 nM |
| 60 | 20 | 140 | – | Nc1nc(-c2nc(-c3ccnc(N)c3F)ccc2O)cc(C2CCOCC2)n1 [Example 85, 2′-amino-6-(2-amino-6-(tetrahydro-2H-pyran-4-yl)pyrimidin-4-yl)-3′-fluoro-[2,4′-bipyridin]-5-ol 3hydrochloride] | GI50 ([4]; 72 hrs): 90 nM; GI50 ([5]; 72 hrs): 70 nM |
| 20 | 40 | 40 | – | CC(C)N1CCC(c2cc(-c3nc(-c4ccnc(N)c4F)ccc3O)nc(N)n2)CC1 [Example 88, 2′-amino-6-(2-amino-6-(1-isopropylpiperidin-4-yl)pyrimidin-4-yl)-3′-fluoro-[2,4′-bipyridin]-5-ol 4hydrochloride] | GI50 ([4]; 72 hrs): 20 nM; GI50 ([5]; 72 hrs): 10 nM |
| 20 | 10 | 50 | – | CCN1CCC(c2cc(-c3nc(-c4ccnc(N)c4F)ccc3O)nc(N)n2)CC1 [Example 86, 2′-amino-6-(2-amino-6-(1-ethylpiperidin-4-yl)pyrimidin-4-yl)-3′-fluoro-[2,4′-bipyridin]-5-ol 4hydrochloride] | GI50 ([4]; 72 hrs): 190 nM; GI50 ([5]; 72 hrs): 30 nM |
| – | – | – | 30 | CC(C)c1cnc(N)nc1-c1nc(-c2ccnc(N)c2F)ccc1O [Example 58] | GI50 ([1]; Homo sapiens, A549, 72 h): 70 nM; GI50 ([3]; Homo sapiens, NCI-H23, 72 h): 60 nM; GI50 ([4]; Homo sapiens, T98G, 72 h): 40 nM; GI50 ([5]; Homo sapiens, U-87 MG, 72 h): 60 nM |
| 30 | 20 | 50 | – | CC(C)N1CCCC(c2cc(-c3nc(-c4ccnc(N)c4F)ccc3O)nc(N)n2)C1 (stereo not shown) [Example 92, 2′-amino-6-(2-amino-6-(1-isopropylpiperidin-3-yl)pyrimidin-4-yl)-3′-fluoro[2,4′-bipyridin]-5-ol 4hydrochloride] | GI50 ([4]; 72 hrs): 90 nM; GI50 ([5]; 72 hrs): 30 nM |
| – | 2030 | – | – | Cc1c(-c2nc(-c3ccnc(N)c3F)ccc2O)nc(N)nc1C1CCCN(C(C)C)C1 (stereo not shown) [Example 99, 2′-amino-6-(2-amino-6-(1-isopropylpiperidin-3-yl)-5-methylpyrimidin-4-yl)-3′-fluoro-[2,4′-bipyridin]-5-ol 4hydrochloride] | GI50 ([4]; Homo sapiens, T98G, 72 h): 3790 nM; GI50 ([5]; 72 hrs): 2570 nM |
| 1300 | 890 | 2060 | – | CCCN1CCCC(c2nc(N)nc(-c3nc(-c4ccnc(N)c4F)ccc3O)c2C)C1 (stereo not shown) [Example 98, 2′-amino-6-(2-amino-5-methyl-6-(1-propylpiperidin-3-yl)pyrimidin-4-yl)-3′-fluoro-[2,4′-bipyridin]-5-ol 4hydrochloride] | GI50 ([4]; 72 hrs): 1750 nM; GI50 ([5]; 72 hrs): 970 nM |
| – | – | – | 1180 | Cc1cc(-c2nc(-c3ccncc3F)ccc2O)nc(N)n1 [Example 26, 6-(2-amino-6-methylpyrimidin-4-yl)-3′-fluoro-[2,4′-bipyridin]-5-ol] | – |
| 10 | 3 | 40 | – | CCCN1CCC(c2cc(-c3nc(-c4ccnc(N)c4F)ccc3O)nc(N)n2)CC1 [Example 87, 2′-amino-6-(2-amino-6-(1-propylpiperidin-4-yl)pyrimidin-4-yl)-3′-fluoro-[2,4′-bipyridin]-5-ol 4hydrochloride] | GI50 ([4]; 72 hrs): 20 nM; GI50 ([5]; 72 hrs): 10 nM |
| 140 | 20 | 70 | – | CC(C)c1cc(-c2nc(-c3ccnc(N)c3F)ccc2O)nc(N)n1 [Example 81, 2′-amino-6-(2-amino-6-isopropylpyrimidin-4-yl)-3′-fluoro-[2,4′-bipyridin]-5-ol 3hydrochloride] | – |
| – | 40 | – | – | CN1CCC(c2cc(-c3nc(-c4ccnc(N)c4F)ccc3O)nc(N)n2)CC1 [Example 78, 2′-amino-6-(2-amino-6-(1-methylpiperidin-4-yl)pyrimidin-4-yl)-3′-fluoro-[2,4′-bipyridin]-5-ol 2acetate] | – |
| – | – | – | 2300 | Nc1nccc(-c2cnc(O)c(-c3ccnc(N)n3)c2)n1 [Example 6, 3,5-bis(2-aminopyrimidin-4-yl)pyridin-2-ol] | – |
| – | – | – | 6080 | Nc1nccc(-c2nc(-c3cccnc3)ccc2O)n1 [Example 11, 6-(2-aminopyrimidin-4-yl)-[2,3′-bipyridin]-5-ol] | – |
| 10 | – | 20 | – | CN1CCCC(c2cc(-c3nc(-c4ccnc(N)c4F)ccc3O)nc(N)n2)C1 (stereo not shown) [Example 89, 2′-amino-6-(2-amino-6-(1-methylpiperidin-3-yl)pyrimidin-4-yl)-3′-fluoro-[2,4′-bipyridin]-5-ol 4hydrochloride] | GI50 ([4]; 72 hrs): 20 nM |
| – | – | – | 290 | Cc1cc(-c2nc(-c3ccc(O)cc3)ccc2O)nc(N)n1 [Example 27, 2-(2-amino-6-methylpyrimidin-4-yl)-6-(4-hydroxyphenyl)pyridin-3-ol] | – |
| – | – | – | 720 | Cc1cc(-c2nc(-c3cccc(N)c3)ccc2O)nc(N)n1 [Example 30, 2-(2-amino-6-methylpyrimidin-4-yl)-6-(3-aminophenyl)pyridin-3-ol] | – |
| – | – | – | – | Nc1nccc(-c2ccc(O)c(-c3ccnc(N)n3)n2)n1 [Example 62, 2,6-bis(2-aminopyrimidin-4-yl)pyridin-3-ol oxalate] | GI50 ([2]; 72 hrs, oxalate): 190 nM |
| – | – | – | 2910 | Cc1c(-c2nc(-c3ccnc(N)c3F)ccc2O)nc(N)nc1C1CCCN(C(C)C)C1 (stereo not shown) [Example 48, 2′-amino-6-(2-amino-6-(1-isopropylpiperidin-3-yl)-5-methylpyrimidin-4-yl)-3′-fluoro-[2,4′-bipyridin]-5-ol] | GI50 ([5]; Homo sapiens, U-87 MG, 72 h): 3820 nM |
| – | – | – | – | CN1CCC(c2cc(-c3nc(-c4ccnc(N)c4F)ccc3O)nc(N)n2)CC1 [Example 79, 2′-amino-6-(2-amino-6-(1-methylpiperidin-4-yl)pyrimidin-4-yl)-3′-fluoro-[2,4′-bipyridin]-5-ol oxalate] | GI50 ([2]; 72 hrs, oxalate): 40 nM |
| – | 140 | – | – | CN1CCC(c2cc(-c3nc(-c4ccnc(N)c4F)ccc3O)nc(N)n2)CC1 [Example 80, 2′-amino-6-(2-amino-6-(1-methylpiperidin-4-yl)pyrimidin-4-yl)-3′-fluoro-[2,4′-bipyridin]-5-ol malonate] | – |
| – | 190 | – | – | Nc1nccc(-c2ccc(O)c(-c3ccnc(N)n3)n2)n1 [Example 63, 2,6-bis(2-aminopyrimidin-4-yl)pyridin-3-ol malonate] | – |
| – | – | – | 3590 | Nc1cc(-c2ncc(O)c(-c3ccnc(N)n3)n2)ccn1 [Example 5, 2′-amino-2-(2-aminopyridin-4-yl)-[4,4′-bipyrimidin]-5-ol] | – |
| – | – | – | 1260 | Cc1cc(-c2nc(-c3ccc(O)cc3F)ccc2O)nc(N)n1 [Example 29, 2-(2-amino-6-methylpyrimidin-4-yl)-6-(2-fluoro-4-hydroxyphenyl)pyridin-3-ol] | – |
| – | 190 | – | – | Nc1nccc(-c2ccc(O)c(-c3ccnc(N)n3)n2)n1 [Example 64, 2,6-bis(2-aminopyrimidin-4-yl)pyridin-3-ol sulfate] | – |
| – | – | – | 670 | Nc1cccc(-c2nc(-c3ccnc(N)n3)ccc2O)n1 [Example 7, 6′-amino-6-(2-aminopyrimidin-4-yl)-[2,2′-bipyridin]-3-ol] | – |
| – | – | – | 290 | Cc1cc(-c2nc(-c3ccncc3)ccc2O)nc(N)n1 [Example 25, 6-(2-amino-6-methylpyrimidin-4-yl)-[2,4′-bipyridin]-5-ol] | – |
